Measurements taken from patent EP3248604A1, “AGENTS FOR MODULATION OF WNT-TCF SIGNALLING AND USES THEREOF” (UNIVERSITE DE GENEVE, priority 2016, dated 2017).

Columns and labels:
Type in all cases: cell-based, human
[1] = test system: WNT-TCF targets; experiment: RT-qPCR gene expression in U87 glioblastoma cells; conditions: 16h, batch 3, vs DMSO=1
Procedure: (§1) RT-qPCR was performed as in Melotti et al. (2014, supra) using BioRad equipment and reagents. Cells cultured in nitro were treated with the desired concentration of drug in DMEM-F12 and reduced serum (2.5% FBS) for 16h, unless otherwise noted, and collected in Trizol (Sigma) before total RNA extraction and cDNA synthesis. Primers were as in Table 1. HPRT (gene encoding Hypoxanthine phosphoribosyltransferase 1) and βACTIN were used as housekeeping controls for normalization.
(§2) Primary colon cells CC14, CC36 and mCC11, colon cancer cell lines DLD1, HT29, Ls174T, melanoma cell line MeWo, glioblastoma cell lines U87 and U251, and the lung cancer cell line H358 were cultured in DMEM-F12 with 10% FBS under standard in nitro conditions.

[2] = test system: TCF targets; experiment: Microarray transcriptome analysis in Ls174T cells; conditions: 16h
Procedure: Cells treated with compounds were collected in Trizol and RNA was harvested using standard protocols. Quality and quantity of RNA was checked using Nano Series (Agilent Technologies). Samples with a RNA Integrity Number (RIN) >9/10 were chosen and cDNA and cRNA samples were prepared using GeneChip IVT Express kit. Genechip hybridization was done using the same kit and applied to PrimeView U219 human array (Affymetrix) in the Genomic Platform at the Faculty of Medicine, University of Geneva.
To test the effects of CAP2 on the transcriptome in a genome-wide manner microarray analyses with Ls174T cells were performed as these have been previously used to determine the genome-wide changes driven by dnTCF activity (van der Flier et al., 2007, Gastroenterology, 132(2): 628-32), the genetic benchmark use here. Ls174T cells were treated with 5 µM CAP2 (batch 3) for 16h, and their transcriptome compared with that of controls treated with DMSO under the same conditions. This dose was chosen since it results in extended WNT-TCF target gene modulation (Table 6).

[3] = test system: WNT-TCF targets; experiment: RT-qPCR gene expression in Ls174T cells; conditions: Ls174T
Procedure: as §1
Compounds have been tested for the transcriptional modulation of a restricted TCF signature in human colon cancer Ls174T cells. These included the direct targets AXIN2 (gene encoding a protein axis inhibition protein 2), LGR5 (gene encoding encodes leucine-rich repeat-containing G-protein coupled receptor 5) and cMYC (a regulator gene encoding a transcription factor), which should be repressed by WNT-TCF response antagonists and p21 (or CDKN1A, gene encoding a cyclin-dependent kinase inhibitor that inhibits the complexes of CDK2 and CDK1), which should be induced.

[4] = test system: WNT-TCF targets; experiment: RT-qPCR gene expression in U251 glioblastoma cells; conditions: 16h, batch 3, vs DMSO=1
Procedure: as §1, §2

[5] = test system: WNT-TCF targets; experiment: RT-qPCR gene expression in mCC11 primary colon cancer cells
Procedure: as §1, §2

[6] = Table 9, microarray, Ls174T, 5 µM (batch 3), vs DMSO
[7] = Table 10, Microarray, CAP2 5 µM
[8] = microarray, Ls174T, 5 µM, vs DMSO
[9] = 1.25µM, 16h, batch 3, vs DMSO=1
[10] = 5µM batch 3, 2h post-treatment, vs DMSO=1
[11] = 5µM batch 3, 4h post-treatment, vs DMSO=1
[12] = Table 11, head 'in vitro', concentration not given

CC1=C(C)C(=O)O[C@@H]([C@](C)(O)[C@]2(O)CC[C@@]3(O)[C@@H]4CC=C5CC=CC(=O)[C@]5(C)[C@H]4CC[C@]23C)C1 [CAP2]
AXIN2 expression ([1]; 1.25µM): 0.7 | LGR5 expression ([1]; 1.25µM): 0.3 | AXIN2 expression ([1]; 2.5µM): 0.5 | LGR5 expression ([1]; 2.5µM): 0.3 | AXIN2 expression ([1]; 5µM): 0.5 | LGR5 expression ([1]; 5µM): 0.2 | AXIN2 expression ([1]; 10µM): 0.6 | LGR5 expression ([1]; 10µM): 0.2 | ASCL2 Fold change [2, 6]: -9 | AXIN2 Fold change [2, 6]: -4 | CDKN1A Fold change [2, 6]: 9 | LGR5 Fold change [2, 6]: -15 | cMYC Fold change [2, 6]: -10 | ASCL2 Fold change, Ls174T cells [2, 7]: -9.1 | AXIN2 Fold change, Ls174T cells [2, 7]: -4.1 | LGR5 Fold change, Ls174T cells [2, 7]: -15.1 | cMYC Fold change, Ls174T cells [2, 7]: -10.2 | share of the 106-gene set of TCF targets repressed by 1.5-fold or more ([2]; microarray, Ls174T, 5 µM): 70% | downregulation of ASCL2 [2, 8]: 9 fold | downregulation of AXIN2 [2, 8]: 4 fold | downregulation of LGR5 [2, 8]: 15 fold | AXIN2 expression [3, 9]: 0.6 | LGR5 expression [3, 9]: 0.2 | AXIN2 expression ([3]; 2.5µM, 16h, batch 3, vs DMSO=1): 0.4 | LGR5 expression ([3]; 2.5µM, 16h, batch 3, vs DMSO=1): 0.1 | AXIN2 expression [3, 10]: 0.2 | LGR5 expression [3, 10]: 0.7 | AXIN2 expression [3, 11]: 0.1 | LGR5 expression [3, 11]: 0.1 | AXIN2 expression ([3]; 5µM, 16h, batch 3, vs DMSO=1): 0.2 | LGR5 expression ([3]; 5µM, 16h, batch 3, vs DMSO=1): 0.03 | AXIN2 expression ([3]; 10 µM, 16h): 0.6 | CDKN1A expression ([3]; 10 µM, 16h): 3.7 | LGR5 expression ([3]; 10 µM, 16h): 0.7 | cMYC expression ([3]; 10 µM, 16h): 0.6 | AXIN2 expression ([3]; 10µM, 16h, batch 3, vs DMSO=1): 0.1 | LGR5 expression ([3]; 10µM, 16h, batch 3, vs DMSO=1): 0.1 | AXIN2 expression level as compared to control ([3]; 2D culture, 2.5µm): 0.4 | ASCL2 expression ([3]; Table 7, 1.25µM, vs DMSO=1): 1.1 | AXIN2 expression ([3]; Table 7, 1.25µM, vs DMSO=1): 0.7 | CDKN1A expression ([3]; Table 7, 1.25µM, vs DMSO=1): 3.5 | LEF1 expression ([3]; Table 7, 1.25µM, vs DMSO=1): 1.2 | LGR5 expression ([3]; Table 7, 1.25µM, vs DMSO=1): 0.3 | cMYC expression ([3]; Table 7, 1.25µM, vs DMSO=1): 0.04 | ASCL2 expression ([3]; Table 7, 2.5µM, vs DMSO=1): 0.4 | AXIN2 expression ([3]; Table 7, 2.5µM, vs DMSO=1): 0.4 | CDKN1A expression ([3]; Table 7, 2.5µM, vs DMSO=1): 5.4 | LEF1 expression ([3]; Table 7, 2.5µM, vs DMSO=1): 0.7 | LGR5 expression ([3]; Table 7, 2.5µM, vs DMSO=1): 0.2 | cMYC expression ([3]; Table 7, 2.5µM, vs DMSO=1): 0.1 | ASCL2 expression ([3]; Table 7, 5µM, vs DMSO=1): 0.1 | AXIN2 expression ([3]; Table 7, 5µM, vs DMSO=1): 0.3 | CDKN1A expression ([3]; Table 7, 5µM, vs DMSO=1): 11.4 | LEF1 expression ([3]; Table 7, 5µM, vs DMSO=1): 0.5 | LGR5 expression ([3]; Table 7, 5µM, vs DMSO=1): 0.1 | cMYC expression ([3]; Table 7, 5µM, vs DMSO=1): 0.1 | ASCL2 expression ([3]; Table 7, 10µM, vs DMSO=1): 0.1 | AXIN2 expression ([3]; Table 7, 10µM, vs DMSO=1): 0.1 | CDKN1A expression ([3]; Table 7, 10µM, vs DMSO=1): 7.6 | LEF1 expression ([3]; Table 7, 10µM, vs DMSO=1): 0.3 | LGR5 expression ([3]; Table 7, 10µM, vs DMSO=1): 0.1 | cMYC expression ([3]; Table 7, 10µM, vs DMSO=1): 0.01 | ASCL2 expression [3, 12]: 0.1 | AXIN2 expression [3, 12]: 0.3 | LGR5 expression [3, 12]: 0.1 | AXIN2 expression ([4]; 1.25µM): 0.9 | LGR5 expression ([4]; 1.25µM): 0.5 | AXIN2 expression ([4]; 2.5µM): 0.8 | LGR5 expression ([4]; 2.5µM): 0.3 | AXIN2 expression ([4]; 5µM): 0.7 | LGR5 expression ([4]; 5µM): 0.2 | AXIN2 expression ([4]; 10µM): 0.5 | LGR5 expression ([4]; 10µM): 0.2 | AXIN2 expression [5, 9]: 0.6 | LGR5 expression [5, 9]: 0.8 | AXIN2 expression ([5]; 2.5µM, 16h, batch 3, vs DMSO=1): 0.5 | LGR5 expression ([5]; 2.5µM, 16h, batch 3, vs DMSO=1): 0.3 | AXIN2 expression ([5]; 5µM, 16h, batch 3, vs DMSO=1): 0.3 | LGR5 expression ([5]; 5µM, 16h, batch 3, vs DMSO=1): 0.1 | AXIN2 expression ([5]; 10µM, 16h, batch 3, vs DMSO=1): 0.3 | LGR5 expression ([5]; 10µM, 16h, batch 3, vs DMSO=1): 0.04 | ASCL2 expression ([5]; Table 7, 1.25µM, vs DMSO=1): 0.3 | AXIN2 expression ([5]; Table 7, 1.25µM, vs DMSO=1): 0.6 | CDKN1A expression ([5]; Table 7, 1.25µM, vs DMSO=1): 1.4 | LEF1 expression ([5]; Table 7, 1.25µM, vs DMSO=1): 0.3 | LGR5 expression ([5]; Table 7, 1.25µM, vs DMSO=1): 0.8 | cMYC expression ([5]; Table 7, 1.25µM, vs DMSO=1): 0.5 | ASCL2 expression ([5]; Table 7, 2.5µM, vs DMSO=1): 0.2 | AXIN2 expression ([5]; Table 7, 2.5µM, vs DMSO=1): 0.5 | CDKN1A expression ([5]; Table 7, 2.5µM, vs DMSO=1): 2.7 | LEF1 expression ([5]; Table 7, 2.5µM, vs DMSO=1): 0.4 | LGR5 expression ([5]; Table 7, 2.5µM, vs DMSO=1): 0.3 | cMYC expression ([5]; Table 7, 2.5µM, vs DMSO=1): 0.3 | ASCL2 expression ([5]; Table 7, 5µM, vs DMSO=1): 0.1 | AXIN2 expression ([5]; Table 7, 5µM, vs DMSO=1): 0.3 | CDKN1A expression ([5]; Table 7, 5µM, vs DMSO=1): 6.5 | LEF1 expression ([5]; Table 7, 5µM, vs DMSO=1): 0.5 | LGR5 expression ([5]; Table 7, 5µM, vs DMSO=1): 0.1 | cMYC expression ([5]; Table 7, 5µM, vs DMSO=1): 0.1 | ASCL2 expression ([5]; Table 7, 10µM, vs DMSO=1): 0.02 | AXIN2 expression ([5]; Table 7, 10µM, vs DMSO=1): 0.3 | CDKN1A expression ([5]; Table 7, 10µM, vs DMSO=1): 5.3 | LEF1 expression ([5]; Table 7, 10µM, vs DMSO=1): 0.6 | LGR5 expression ([5]; Table 7, 10µM, vs DMSO=1): 0.04 | cMYC expression ([5]; Table 7, 10µM, vs DMSO=1): 0.1
